These results are taken from PMC8398766, “Do Small Molecules Activate the TrkB Receptor in the Same Manner as BDNF? Limitations of Published TrkB Low Molecular Agonists and Screening for Novel TrkB Orthosteric Agonists” (Pharmaceuticals, 2021).

Entries after “also recorded” stand apart in the source; their conditions may differ. Like-named read-outs stand apart in the source and are kept apart here.

Data set [1] is described as follows: Metabolic stability in mouse liver microsomes. Particulars: compared with verapamil. In general terms: Liver microsomes are a subcellular fraction often used to study metabolism.
Data set [2] can be described thus: in vitro. Particulars: mouse, microsomes.
The target in the next data set is TrkB. Particulars: cited from earlier work.
Data set [3] in a line: in vitro. Particulars: human, microsomes.
Data set [4] is described as follows: in vitro. The conditions noted are these: human, Caco-2.
The nature of data set [5]: Metabolic stability in human liver microsomes. Particulars: compared with verapamil.
The target of the next data set is T1, TrkB receptor (Rattus norvegicus, UniProt Q63604).
T1 construct: host or cells: SN56 T48 cell line
Briefly: ELFI TrkB phosphorylation, orthosteric agonist mode, SN56 T48 cell line. Type of data set: cell-based. The conditions noted are these: 0.125–100 μM, 15 min. The method, then:
The SN56 T48 cell line with stable overexpression of the TrkB receptor was purchased from Emory University (Atlanta, GA, USA) and cultivated according to the protocol described in Jang et al., 2010 [12]. The cell lines were cultivated with the following reagents: DMEM High Glucose, fetal bovine serum (FBS), Penicillin-Streptomycin Solution 100×, and Trypsin-EDTA 1×; all were purchased from Biowest, and G418 was from ThermoFisher Scientific. For the ELFI experiments, cells were seeded (8000/well) on a PDL-treated 96-well plate (BioCoat™, Corning Inc., Corning, NY, USA) and 6-well plate (400,000/well) for lysate collection and immunoblot analysis.
In the orthosteric agonist mode experiments, starved cells (5 h) were treated with compounds (0.125–100 μM; volume, 100 μL/well) or BDNF (0.01–10 nM; volume, 100 μL/well) dissolved in culture medium. In the allosteric modulation mode experiments, starved cells (5 h) were treated with final compound concentrations of 3, 10, and 30 μM; volume, 50 μL/well) in the presence of a rising concentration of BDNF (final concentration in well, 0.15–5 nM; volume, 50 μL/well). Corresponding treatment with DMSO (v/v) was performed for a control. Cells were treated for 15 min in both the orthosteric and allosteric modulation mode experiments.
The analysis of TrkB receptor activation was performed using the ELFI method adapted from Boltayev et al. (2017) with some modifications. After compound treatment, experiments were stopped by fixing cells with 10% buffered formalin (Kolchem, Lodz, Poland) for 20 min (volume, 100 μL/well). Afterwards, cells were permeabilized with washing buffer (TBS+ 0.1% Tween20) for 15 min, and endogenous peroxidases were quenched by 20 min of incubation with 1% H2O2 dissolved in TBS (each solution: volume, 100 μL/well). Epitopes were blocked with 10% BSA (Biowest) dissolved in washing buffer for 2 h (volume, 100 μL/well) and incubated with anti-pTrkB (Tyr707) primary antibody (Cell Signaling Technology, Danvers, MA, USA) diluted in washing buffer (1:500; overnight at 4 °C; volume, 100 μL/well). After repeated washing, cells were incubated with HRP-linked anti-rabbit antibody (Cell Signaling Technology) for 2 h (1:1000; RT; volume, 100 μL/well) and washed. The cells were then incubated with 100 μL of ImmunoCruz™ Western Blotting Luminol (Santa Cruz Biotechnology, Dallas, TX, USA) for 1 min in the dark, and the signals were measured using a microplate luminometer (VICTOR Light 1420-060, PerkinElmer®, Waltham, MA, USA). For non-specific binding, cells were treated, with the exception of primary antibody.

A further data set can be described thus: in vivo. The data set is classed as in vivo, BALB/c mice. As to the method:
The animals were obtained from the Center of Experimental Medicine (University of Bialystok, Bialystok, Poland) and housed under standard laboratory conditions. Mice had unlimited access to water and food. All the procedures were conducted according to the guidelines of the local ethical commission (appl no. 06/2019, perm. no 10/2019). […] Four animals per time point were sacrificed at 10 min, 30 min, 1 h, 2 h, and 4 h after per os administration and 5 min, 10 min, 30 min, 1 h, and 2 h after i.v. administration. The blood (0.5 mL) was collected by heart puncture using probes with anticoagulants (K2EDTA). Plasma samples were obtained by blood centrifugation (15 min, 3000× g at 23 °C). The whole brain was dissected from the skull and washed with cold 0.9% NaCl on ice. The left hemisphere was quickly frozen in liquid nitrogen and stored at −80 °C for further bioanalytical analysis. From the right hemisphere, the hippocampus and frontal cortex were isolated, weighed, and stored at −80 °C after freezing in liquid nitrogen. Isolated structures were homogenized in N-PER cocktail (10 μL for every 1 mg of tissue) using a hand homogenizer, and then processed as described in Section 4.3.3.
For bioanalytical evaluation, brain samples were homogenized in water (3 mL for every 1 g of brain tissue). Plasma and brain samples were then prepared by precipitating proteins and extracting analytes using acetonitrile with the addition of the internal standard: 150 μL of extraction solution was added to 50 μL of biological material, mixed for 1 min and centrifuged (12,900 RPM, 4 min, 4 °C), and the supernatant was collected for analysis. Standard solutions including calibration standards and quality control samples were prepared by spiking 45 μL of biological material with 5 μL of standard working solution, adding 150 μL of extraction solution, and then mixing, centrifuging, and collecting the supernatant for analysis. The concentrations of analytes in the plasma and brain samples were determined using a UPLC-MS/MS instrument (Agilent Technologies) and chromatographic columns (Agilent Zorbax Eclipse 50 × 2.1 mm; 1.7 μm).

Another data set concerns the target T2, A1 (Homo sapiens, UniProt P30542).
T2 construct: purchased Eurofins Discovery (Cerep) BioPrint Profile Panel
Briefly: BioPrint Profile Panel. Particulars: Agonist, Receptor, read-out: % Inhibition of Control Specific Binding. The text has this:
The BioPrint® Profile Panel service offered by Eurofins Discovery (Poitiers, France) was chosen to perform selectivity analysis.

A short description of data set [6]: in vitro. Particulars: PAMPA, pH 7.4. Background: PAMPA measures passive passage across an artificial lipid membrane.
A further data set in a line: PAMPA. Particulars: 10 μM, 4 h.
Setting [7] is: male, BALB/c, mouse, in vivo, po, 50 mg/kg.

T1 sequence (Q63604 32-821): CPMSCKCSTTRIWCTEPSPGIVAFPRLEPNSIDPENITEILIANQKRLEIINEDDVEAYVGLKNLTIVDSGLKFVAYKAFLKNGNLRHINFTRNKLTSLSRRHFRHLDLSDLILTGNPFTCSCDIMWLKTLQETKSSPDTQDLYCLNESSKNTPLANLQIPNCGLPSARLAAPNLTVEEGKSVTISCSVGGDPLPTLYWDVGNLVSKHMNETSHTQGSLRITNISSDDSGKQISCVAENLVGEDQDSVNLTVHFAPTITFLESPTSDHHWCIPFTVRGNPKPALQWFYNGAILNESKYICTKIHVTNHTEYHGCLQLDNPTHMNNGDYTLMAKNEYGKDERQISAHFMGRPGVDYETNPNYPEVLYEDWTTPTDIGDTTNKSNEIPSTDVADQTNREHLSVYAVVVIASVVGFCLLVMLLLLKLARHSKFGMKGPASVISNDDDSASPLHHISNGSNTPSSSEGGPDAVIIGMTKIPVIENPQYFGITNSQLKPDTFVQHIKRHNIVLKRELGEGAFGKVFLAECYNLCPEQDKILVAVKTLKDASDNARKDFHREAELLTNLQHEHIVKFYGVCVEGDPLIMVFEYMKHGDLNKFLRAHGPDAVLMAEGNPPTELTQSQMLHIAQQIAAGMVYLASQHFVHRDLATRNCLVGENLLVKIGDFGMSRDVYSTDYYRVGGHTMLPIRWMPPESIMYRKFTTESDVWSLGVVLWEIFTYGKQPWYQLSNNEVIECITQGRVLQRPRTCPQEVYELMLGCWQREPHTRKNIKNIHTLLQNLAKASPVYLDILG
T2 sequence (P30542 whole entry): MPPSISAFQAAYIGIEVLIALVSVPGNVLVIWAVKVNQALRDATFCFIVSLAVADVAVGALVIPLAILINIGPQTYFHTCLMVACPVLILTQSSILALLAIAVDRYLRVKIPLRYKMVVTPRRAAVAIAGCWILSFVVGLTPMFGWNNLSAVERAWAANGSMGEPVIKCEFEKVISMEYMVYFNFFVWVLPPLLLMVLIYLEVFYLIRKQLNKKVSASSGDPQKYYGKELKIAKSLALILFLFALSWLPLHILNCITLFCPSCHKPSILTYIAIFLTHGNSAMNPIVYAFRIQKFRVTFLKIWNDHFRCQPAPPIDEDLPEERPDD

On to `O=c1cc(-c2ccccc2)oc2c(O)c(O)ccc12` [7,8-DHF, 7,8-dihydroxyflavone], for which the “Metabolic stability in MLM (classification)” value in data set [1] is “moderate degradation rate”. Further, the microsomal CLint at 1 μM in the data set “in vitro [2]” stood at 21.3 µL/min/mg; in the data set “in vitro [3]”, 52.2 µL/min/mg. Further, the Kd at TrkB (ref Jang et al. (2010) [12], read-out: Binding affinity) is 15.4 nM; on TrkB (ref Liu et al. (2014) [35], read-out: Binding affinity), 12.1 nM. Moreover, in “in vitro [4]”, the Papp A→B at 2 h turned out to be 22.8 ×10⁻⁶ cm/s. For the same molecule, the Papp B→A at 2 h in “in vitro [4]” turned out to be 12.4 ×10⁻⁶ cm/s. Also, the “Metabolic stability in HLM (classification)” value in data set [5] is given as “moderate degradation rate”. Besides, on TrkB receptor, the “Orthosteric activity (induction of TrkB phosphorylation)” value was “failed to show any activity; also recorded: does not occur”. In “in vivo” (7,8-DHF i.v. 1 mg/kg), the “Detection in plasma or brain samples” value is given as “not detectable”. Moreover, the “C brain, individual mice” value in the data set “in vivo” (7,8-DHF i.v. 1mg/kg, 5min) is recorded as “< LLQ”; in the data set “in vivo” (7,8-DHF i.v. 1mg/kg, 10 min), “< LLQ”; in the data set “in vivo” (7,8-DHF i.v. 1mg/kg, 30 min), “< LLQ”; in “in vivo” (7,8-DHF i.v. 1mg/kg, 1h) it was “< LLQ”; in the data set “in vivo” (7,8-DHF i.v. 1mg/kg, 2h), “< LLQ”; in the data set “in vivo” (7,8-DHF p.o 50mg/kg, 4h) it was “< LLQ”. Further, the “C plasma, individual mice” value in “in vivo” (7,8-DHF i.v. 1mg/kg, 5min) is “< LLQ”; in the data set “in vivo” (7,8-DHF i.v. 1mg/kg, 10 min), “< LLQ”; in the data set “in vivo” (7,8-DHF i.v. 1mg/kg, 30 min) it was “< LLQ”; in “in vivo” (7,8-DHF i.v. 1mg/kg, 1h), “< LLQ”; in the data set “in vivo” (7,8-DHF i.v. 1mg/kg, 2h) it was “< LLQ”; in the data set “in vivo” (7,8-DHF p.o 50mg/kg, 1h), “< LLQ”. The “C plasma, individual mice” value in “in vivo” (7,8-DHF p.o 50mg/kg, 4h) is on record as “< LLQ”. In addition, the “Brain concentration relative to plasma” value in the data set “in vivo” (7,8-DHF p.o. 50 mg/kg) was determined as 10 fold lower. In “in vivo” (7,8-DHF p.o. 50 mg/kg), the “Time at which plasma concentration fell under the detection limit” value was 1 h. Besides, in “in vivo” (setting [7]), the AUC amounted to 20.9 ng·h/mL. In addition, in the data set “in vivo” (setting [7]), the “Time of maximal plasma concentration” value came to 10 min. The Tmax in “in vivo” (setting [7]) stood at 9.6 min. The Cmax in the data set “in vivo” (male, BALB/c, mouse, in vivo, po, 50 mg/kg, brain, 7,8-DHF p.o. 50 mg/kg, read-out: Cmax) amounted to 6.35 ng/g; in “in vivo” (male, BALB/c, mouse, in vivo, po, 50 mg/kg, plasma, 7,8-DHF p.o. 50 mg/kg, read-out: Cmax), 77.4 ng/mL; in “in vivo” (plasma, 7,8-DHF p.o. 50 mg/kg, 50 mg/kg), 72.42 ng/mL. For the same molecule, the inhibition at 10 µM on A1 was 99%. The molecule further had a Papp at 4 h, 10 μM in “in vitro [6]” of 15.8 ×10⁻⁶ cm/s.

As for `C=CC(C)(C)c1[nH]c2ccccc2c1C1=C(O)C(=O)C(c2c[nH]c3c(CC=C(C)C)cccc23)=C(O)C1=O` [DMAQ-B1], the “Metabolic stability in MLM (classification)” value in [1] is “instability of this compound in the experimental system”. Besides, the PAMPA in “PAMPA” was 6.93 10^−6·cm/s. Moreover, the “Metabolic stability in HLM (classification)” value in [5] is “instability of this compound in the experimental system”.

B1: BDNF: Brain-derived neurotrophic factor, endogenous TrkB receptor agonist (protein, UniProt P23560 19-247, looked up)
Neurotrophic factor BDNF …: APMKEANIRGQGGLAYPGVRTHGTLESVNGPKAGSRGLTSLADTFEHVIEELLDEDQKVRPNEENNKDADLYTSRVMLSSQVPLEPPLLFLLEEYKNYLDAANMSMRVRRHSDPARRGELSVCDSISEWVTAADKKTAVDMSGGTVTVLEKVPVSKGQLKQYFYETKCNPMGYTKEGCRGIDKRHWNSQCRTTQSYVRALTMDSKKRIGWRFIRIDTSCVCTLTIKRGR
As for B1, on TrkB (SPR, ref [12],[35], read-out: Kd), the Kd is 1.7 nM.

The term microsomal CLint denotes the rate of metabolic loss divided by the concentration. Read a low microsomal CLint as greater metabolic stability. The Papp A→B is how fast a substance crosses the layer from the apical side. Lower therefore signals poor permeation. In general, Papp B→A refers to how fast a substance crosses the layer from the basolateral side. What is called AUC is the area under the concentration-time curve, a measure of exposure. A lower AUC goes with low exposure. By Tmax is commonly meant the time from dosing to the highest level. Usually Cmax stands for the maximum level reached in the sampled fluid or tissue. The term inhibition denotes the relative decrease from the control value, in per cent. By Papp is commonly meant the rate of passage across a membrane or cell layer, normalised by area and donor concentration. The low end stands for poor permeation, the high end for ready permeation.
